Experimental data reported in US5929074A, “Pyridazinone derivatives with pharmaceutical activity” (Nissan Chemical Industries, Ltd., priority 1993, dated 1999).
Read-outs that look alike come from different tables or passages of the source.

Tests used:
platelet = assay: Anti-platelet aggregation effect in rabbits (ADP-induced); format: cell-based, rabbit; conditions: read-out: IC50 (concentration at which aggregation of control sample was 50% inhibited)
Experimental: Anti-platelet aggregation effect in rabbits
Blood was collected from the abdominal artery of Japanese white male rabbits (weight: 1.8 to 2.5 kg) into a syringe containing 1/10 volume 3.8% sodium citrate. The blood thus obtained was subjected to a centrifugation at 200×g for 7 minutes at room temperature to obtain platelet rich plasma (PRP). Furthermore, the residue was subjected to a centrifugation at 2000×g for 10 minutes to obtain platelet poor plasma (PPP). The measurement was effected by diluting PRP with PPP to 300,000/mm^3. PRP and PPP were placed in a cuvette, and the measurement range of transmittance was adjusted to 0% in the case of PRP and to 100% in the case of PPP. Thereafter, a test sample drug dissolved in 100% dimethylsulfoxide (DMSO) was added to PRP (the final concentration of DMSO: 0.25%). After incubation was effected at 37° C. at 900 rpm for 2 minutes, an aggregating agent was added to record an aggregation curve. The anti-platelet aggregation effect of the test sample drug was expressed by a concentration (IC50 : μM) at which the aggregation of control sample was 50% inhibited. The aggregating agent ADP was used at the minimum concentration (5 to 10 μM) which caused the maximum aggregation. The measurement of platelet aggregation was carried out by using NBS HEMA TRACER 601.

[1] = test system: anaphylactic bronchoconstriction mediated by endogeneously liberated SRS-A; assay: Effect on anaphylactic bronchoconstriction mediated by endogeneously liberated SRS-A in passively sensitized guinea-pig; format: in vivo; conditions: for inhibition in vivo at 30 mg/kg: Cavia porcellus, po, 2 h
Experimental: Effect on anaphylactic bronchoconstriction mediated by endogeneously liberated SRS-A in passively sensitized guinea-pig
Male guinea-pigs (350-450 g) were passively sensitized with intravenous (i.v.) injection of 0.125 ml rabbit anti-EA (egg albumin) serum (Capple Laboratories) 1 to 2 days preceding the experiment. Antigen-induced anaphylactic bronchoconstrictions mediated by endogeneously liberated SRS-A were measured by modified method of Konzett and Rossler (Arch. Exp. Path. Pharmak., 195, 71, 1940). Sensitized quinea-pigs were anaesthetized with intraperitoneal injection of urethane (1.5 g/kg). The right jugular vein was cannulated for the administration of the all agents and trachea was cannulated to record total pulmonary resistance. Guinea-pigs were artificially ventilated by a small animal respirator (Shinano, Model SN-480-7) set at a stroke volume of 4.5 ml and a rate of 50 breaths per min. The change in pulmonary resistance was measured with a pressure transducer (Nihon Kohden, Model TP-602T) connected to a T-tube on the tracheal cannula. The percentage of the maximum bronchoconstriction obtained by clamping off the trachea. Following surgical preparation, the animals were pretreated with indomethacin (2 mg/kg, 10 min), pyrilamine (2 mg/kg, 6 min) and propranolol (0.1 mg/kg, 5 min) prior to the EA challenge (0.2 mg/kg). All test compounds were administered orally 2 hours before the EA challenge. Inhibition (%) of broncho-constriction was determined as follows: Inhibition (%)=(1.0-% maximum bronchoconstriction in test/% maximum bronchoconstriction in control)×100. The maximum bronchoconstriction was 62±6% (Mean±S.E.M; n=6) and the number of test animals was 5-6.

guinea-pig trachea [2] = assay: Bronchodilating effect in vitro, Method 1-1: relaxation of LTD4-contracted guinea-pig trachea strips; format: cell-based; conditions: Cavia porcellus, read-out: EC50 (concentration to achieve 50% relaxation relative to relaxation by 1 mM aminophylline)
Experimental: (§1) A test sample drug was dissolved in 100% dimethylsulfoxide (DMSO, Wako Junyaku) and diluted for use. Leukotriene D4 (LTD4, Ultrafine) and isoproterenol (Isoproterenol, Sigma) were diluted with distilled water. Indomethacin (Indo, Sigma) was dissolved in 100% ethanol (EtOH, Komune Kagaku). Aminophylline (AP, Sigma), histamine dihydrochloride (His, Wako Junyaku) was dissolved in distilled water. The final concentrations of DMSO and EtOH in a bath were made not higher than 0.25% v/v and not higher than 0.1% v/v, respectively. Method 1:1:
(§2) A guinea-pig of 300-450 g was exsanguinated, and the trachea was taken out. After removing fat and connective tissues, it was cut and divided into 2 to 3 spiral strips, each having a width of about 2 mm and containing 4 smooth muscle tissues. Each specimen thus prepared was suspended in an organ bath of 8 ml containing a modified Tyrode solution aerated with 95% O2 +5% CO2 at 37° C., and a load of 1 g was applied thereto. The relaxation of the muscle was recorded by a pen recorder (Yokogawa Hokushin Electric, type 3066) by means of an isotonic transducer (Nihon Kohden, TD-112S).
The composition of the modified Tyrode solution was as follows (mM):
The specimen was allowed to stand for 50-60 minutes, and was contracted with histamine dihydrochloride (100 μM). After the reaction became constant, it was washed and allowed to stand for 20-30 minutes. Indomethacin (5 μM) was added thereto, and after incubation for 30 minutes, the specimen was contracted by adding LTD4 (30 nM). After the reaction-became stable, a test sample drug was accumulatively administered. Finally, AP (1 mM) was added to achieve the maximum relaxation reaction. The result was expressed by relaxation percent relative to the relaxation by AP which was rated 100%, and a concentration to achieve 50% relaxation (EC50, μM) was measured. As a control drug, AP was used.

histamine H1 receptor = biological target: T1, histamine H1 receptor (Bos taurus, UniProt P30546); assay: Binding test employing 3H-pyrilamine (histamine H1 receptor-binding test); conditions: 0.5 h
T1 construct: suspension of bovine cerebellum; from tissue; host or cells: bovine cerebellum
T1 sequence (P30546 whole entry): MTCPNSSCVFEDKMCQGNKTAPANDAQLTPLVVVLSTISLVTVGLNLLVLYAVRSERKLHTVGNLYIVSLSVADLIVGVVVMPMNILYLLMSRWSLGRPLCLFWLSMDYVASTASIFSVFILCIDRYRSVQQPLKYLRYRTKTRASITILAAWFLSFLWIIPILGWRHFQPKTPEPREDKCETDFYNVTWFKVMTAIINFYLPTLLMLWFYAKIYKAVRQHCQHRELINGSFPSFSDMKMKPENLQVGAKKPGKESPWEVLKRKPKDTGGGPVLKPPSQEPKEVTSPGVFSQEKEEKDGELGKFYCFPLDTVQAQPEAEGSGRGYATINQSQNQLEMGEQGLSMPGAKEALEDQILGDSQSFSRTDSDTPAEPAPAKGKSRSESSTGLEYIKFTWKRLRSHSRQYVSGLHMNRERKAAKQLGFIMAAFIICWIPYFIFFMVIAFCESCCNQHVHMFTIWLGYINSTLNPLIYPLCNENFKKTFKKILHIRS
Experimental: Tritiated pyrilamine was added to a suspension of bovine cerebellum and a 50 mM phosphate buffer solution (pH 7.5), and the mixture was left to stand still at 25° C. for 30 minutes. Then, the mixture was rapidly filtered under suction through a glass fiber filter paper, and the radio activities on the filter paper were measured.

guinea-pig trachea [3] = assay: Bronchodilating effect in vitro, Method 1-2: relaxation of guinea-pig trachea strips (no LTD4 contraction); format: cell-based; conditions: Cavia porcellus, read-out: EC50 (concentration to achieve 50% relaxation relative to relaxation by 1 mM aminophylline)
Experimental: as §1, §2
The same measuring method as method 1-1 was employed. The specimen was allowed to stand for from 60 to 90 minutes and then relaxed by an addition of 1 μM of isopreterenol. The specimen was washed, and this operation was repeated at an interval of from 30 to 40 minutes until a constant relaxation reaction was reached. Then, a test sample drug was accumulately applied to relax the specimen. Finally, 1 mM of AP was added to achieve the maximum relaxation reaction. The result was expressed by relaxation percent relative to the relaxation by AP which was rated 100%, and a concentration to achieve 50% relaxation (EC50, μM) was obtained. The final concentration of DMSO in the bath was adjusted to be 0.2 v/v%. As a control drug, AP was used.

[4] = Oryctolagus cuniculus, Platelet, rabbit PRP, ADP 5 to 10 μM, 37° C.
[5] = 30 mg/kg, orally 2 hours before EA challenge
[6] = Method 1-1, LTD4 (30 nM) contracted trachea, indomethacin 5 μM
[7] = 10 μM, bovine cerebellum, pH 7.5, 25° C., 30 minutes, read-out: Inhibition ratio against H1-receptor
[8] = Method 1-2, trachea conditioned with 1 μM isoproterenol, no LTD4, DMSO 0.2 v/v%
[9] = 30 mg/kg, orally 2 hours before EA challenge, read-out: Inhibition of broncho-constriction

| EC50 (guinea-pig trachea [2]; [6]) | inhibition at 10 µM (histamine H1 receptor; [7]) | Structure (SMILES) | IC50 (platelet; [4]) | EC50 (guinea-pig trachea [3]; [8]) | inhibition in vivo at 30 mg/kg [1, 9] | other results |
| --- | --- | --- | --- | --- | --- | --- |
| 3300 nM | 55.8% | CCn1ncc(NCc2ccc(OC)c(OCCN3CCN(Cc4ccc(F)cc4)CC3)c2)c(Cl)c1=O [Compound 17] | – | – | – | – |
| 390 nM | 86.6% | COc1ccc(CNc2cn[nH]c(=O)c2Br)cc1OCCCN1CCN(Cc2ccccc2)CC1 [Compound 22] | 2100 nM | – | – | – |
| 1300 nM | 92.2% | COc1ccc(CNc2cn[nH]c(=O)c2Cl)cc1OCCCN1CCN(Cc2ccccc2)CC1 [Compound 23] | 4600 nM | – | – | – |
| 2000 nM | 89.2% | COc1ccc(CNc2c([N+](=O)[O-])n[nH]c(=O)c2Cl)cc1OCCCN1CCN(Cc2ccccc2)CC1 [Compound 24] | – | 980 nM | – | – |
| 470 nM | 94.4% | COc1ccc(CNc2c(Cl)n[nH]c(=O)c2Cl)cc1OCCCN1CCN(Cc2ccccc2)CC1 [Compound 25] | 5100 nM | – | 59% | – |
| 750 nM | 92.6% | COc1ccc(CNc2cn[nH]c(=O)c2Cl)cc1OCCCN1CCN(Cc2ccc(F)cc2)CC1 [Compound 26] | – | 910 nM | 36% | – |
| – | 93.6% | COc1ccc(CNc2c([N+](=O)[O-])n[nH]c(=O)c2Cl)cc1OCCCN1CCN(Cc2ccc(Cl)cc2)CC1 [Compound 29] | – | – | – | – |
| 2600 nM | 90.5% | COc1ccc(CNc2c(Cl)n[nH]c(=O)c2Cl)cc1OCCCN1CCN(Cc2ccc(Cl)cc2)CC1 [Compound 30] | – | – | – | – |
| – | – | COc1ccc(CNc2cn[nH]c(=O)c2Cl)cc1OCC(=O)N1CCN(Cc2ccccc2)CC1 [Compound 36] | – | – | – | IC50 (platelet; Oryctolagus cuniculus, Platelet): 1600 nM; inhibition in vivo at 30 mg/kg ([1]; read-out: Inhibition of broncho-constriction, 30 mg/kg, orally 2 hours before EA challenge): 41%; EC50 (guinea-pig trachea [3]): 240 nM; EC50 (guinea-pig trachea [2]): 320 nM |
| 770 nM | – | COc1ccc(CNc2cn[nH]c(=O)c2Cl)cc1OCCCC(=O)N1CCN(Cc2ccccc2)CC1 [Compound 47] | 5700 nM | 540 nM | 37% | – |

| Structure (SMILES) | EC50 (guinea-pig trachea [2]; [6]) | inhibition at 10 µM (histamine H1 receptor; [7]) | IC50 (platelet; [4]) | EC50 (guinea-pig trachea [3]; [8]) | inhibition in vivo at 30 mg/kg [1, 9] | other results |
| --- | --- | --- | --- | --- | --- | --- |
| COc1ccc(CNc2cn[nH]c(=O)c2Br)cc1OCCN1CCN(Cc2ccc(Cl)cc2)CC1.Cl [Compound 7, 4-Bromo-5-[3-{2-(4-(4-chlorobenzyl)-piperazin-1-yl)-ethoxy}-4-methoxybenzylamino]-3(2H)-pyridazinone hydrochloride] | 490 nM | – | 5400 nM | – | – | Inhibition of broncho-constriction [1, 5]: 59%; inhibition at 10 µM (histamine H1 receptor; pH 7.5, read-out: Inhibition ratio against H1-receptor, 10 μM, bovine cerebellum, pH 7.5, 25° C., 30 minutes): 56.1% |
| COc1ccc(CNc2cn[nH]c(=O)c2Br)cc1OCCN1CCN(Cc2ccc(Cl)cc2)CC1.O=C(O)/C=C/C(=O)O [Compound 8, 4-Bromo-5-[3-{2-(4-(4-chlorobenzyl)-piperazin-1-yl)-ethoxy}-4-methoxybenzylamino]-3(2H)-pyridazinone fumarate] | – | 56.5% | – | – | – | IC50 (platelet; rabbit PRP, ADP 5 to 10 μM, 37° C., fumarate): 5500 nM; Inhibition of broncho-constriction [1, 5]: 32% |
| COc1ccc(CNc2cn[nH]c(=O)c2Cl)cc1OCC(=O)N1CCN(Cc2ccc(F)cc2)CC1 [Compound 39] | 160 nM | – | 1400 nM | 170 nM | 63% | – |
| COc1ccc(CNc2cn[nH]c(=O)c2Br)cc1OCC(=O)N1CCN(Cc2ccc(F)cc2)CC1 [Compound 43] | 400 nM | – | 2200 nM | 280 nM | 62% | – |
| CCOc1n[nH]c(=O)c(Cl)c1NCc1ccc(OC)c(OCC(=O)N2CCN(Cc3ccc(F)cc3)CC2)c1 [Compound 64] | 320 nM | – | 390 nM | 61 nM | 26% | – |
| CCOc1n[nH]c(=O)c(Cl)c1NCc1ccc(OC)c(OCC(=O)N2CCN(Cc3ccc4ccccc4n3)CC2)c1 [Compound 67] | 170 nM | – | 400 nM | 41 nM | 29% | – |
